Results taken from patent US11512079B2, “Heterocycle substituted pyridine derivative antifungal agents” (Amplyx Pharmaceuticals, Inc., priority 2017, dated 2022).
Converted amounts (≈) assume the structure as drawn.

Key:
Assay type in all cases: cell-based
[1] = test system: Candida albicans 90028; assay: In vitro antifungal assay (Example IX), microdilution broth, MIC; conditions: minimum inhibitory concentration (≥50% inhibition), 35° C., 40-48 h, RPMI1640
Summary of the method: (§1)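 CLSI broth microdilution in RPMI1640 with 2.5×10^3 cells/mL and final compound concentrations of 2-0.0019 μg/mL (1% DMSO). C. albicans 90028 plates were incubated at 35° C. for 40-48 h and C. neoformans H99 for 72 h. MIC was read as minimum inhibitory concentration, verified at 600 nm.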

[2] = test system: Cryptococcus neoformans H99; assay: as above; conditions: minimum inhibitory concentration (≥50% inhibition), 35° C., 72 h, RPMI1640
Summary of the method: as §1

[3] = test system: Aspergillus fumigatus MYA3626; assay: In vitro antifungal assay (Example IX), microdilution broth, MEC; conditions: minimum effective concentration (shortening of hyphae), 35° C., 40-48 h, RPMI1640
Summary of the method: (§2)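 Spore suspensions of A. fumigatus and R. pusillus adjusted to 1-2×10^4 spores/mL in RPMI1640 and exposed to compound dilutions prepared in DMSO, by broth microdilution. MEC taken as the lowest concentration shortening hyphae versus DMSO control wells, read as for echinocandins.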

[4] = test system: Rhizomucor pusillus 46342; assay: as above; conditions: minimum effective concentration (shortening of hyphae), 35° C., 40-48 h, RPMI1640
Summary of the method: as §2

[5] = test system: Cryptococcus gattii; assay: In vitro antifungal assay (Example IX), microdilution broth, MIC; conditions: minimum inhibitory concentration (≥50% inhibition), 35° C., 72 h (Cryptococcus), RPMI1640
Summary of the method: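 Broth microdilution in RPMI1640 with 2.5×10^3 cells/mL inoculum; final compound concentrations were 2–0.0019 μg/mL, with 1% DMSO. Cryptococcus plates were incubated at 35 °C for 72 h, and growth was read at 600 nm to give the MIC.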

Row | Compound | MIC [1] | MIC [2] | minimal effective concentration [3] | minimal effective concentration [4] | MIC [5]
1 | Nc1ncccc1-c1cc(Cc2ccc(OCc3ccccn3)nc2)no1 [compound 35, 3-(3-((6-(pyridin-2-ylmethoxy)pyridin-3-yl)methyl)isoxazol-5-yl)pyridin-2-amine] | 0.01 to 0.1 µg/mL (≈ 0.0278 to 0.278 µM) | 0.01 to 0.1 µg/mL (≈ 0.0278 to 0.278 µM) | 0.01 to 0.1 µg/mL | > 1 µg/mL | 0.01 to 0.1 µg/mL (≈ 0.0278 to 0.278 µM)
2 | Nc1ncccc1-c1cc(Cc2ccc(OCc3cccnc3)nc2)no1 [compound 36, 3-(3-((6-(pyridin-3-ylmethoxy)pyridin-3-yl)methyl)isoxazol-5-yl)pyridin-2-amine] | 0.01 to 0.1 µg/mL (≈ 0.0278 to 0.278 µM) | 0.01 to 0.1 µg/mL (≈ 0.0278 to 0.278 µM) | 0.01 to 0.1 µg/mL | > 1 µg/mL | 0.01 to 0.1 µg/mL (≈ 0.0278 to 0.278 µM)
3 | Nc1ncccc1-c1cc(Cc2ccc(OCc3ccncc3)nc2)no1 [compound 37, 3-(3-((6-(pyridin-4-ylmethoxy)pyridin-3-yl)methyl)isoxazol-5-yl)pyridin-2-amine] | 0.01 to 0.1 µg/mL (≈ 0.0278 to 0.278 µM) | ≤ 0.01 µg/mL | 0.01 to 0.1 µg/mL | > 1 µg/mL | ≤ 0.01 µg/mL
4 | Cc1cc(COc2ccc(Cc3cc(-c4cccnc4N)on3)cn2)no1 [compound 38, 3-(3-((6-((5-methylisoxazol-3-yl)methoxy)pyridin-3-yl)methyl)isoxazol-5-yl)pyridin-2-amine] | 0.1 to 1 µg/mL (≈ 0.275 to 2.75 µM) | 0.1 to 1 µg/mL (≈ 0.275 to 2.75 µM) | 0.01 to 0.1 µg/mL | 0.1 to 1 µg/mL | 0.1 to 1 µg/mL (≈ 0.275 to 2.75 µM)
5 | Nc1ncccc1-c1cc(Cc2ccc(OCCc3ccccn3)nc2)no1 [compound 39, 3-(3-((6-(2-(pyridin-2-yl)ethoxy)pyridin-3-yl)methyl)isoxazol-5-yl)pyridin-2-amine] | 0.1 to 1 µg/mL (≈ 0.268 to 2.68 µM) | 0.1 to 1 µg/mL (≈ 0.268 to 2.68 µM) | 0.1 to 1 µg/mL | > 1 µg/mL | 0.1 to 1 µg/mL (≈ 0.268 to 2.68 µM)
6 | Nc1ncccc1-c1cc(Cc2ccc(OCc3cccs3)nc2)no1 [compound 40, 3-(3-((6-(thiophen-2-ylmethoxy)pyridin-3-yl)methyl)isoxazol-5-yl)pyridin-2-amine] | 0.1 to 1 µg/mL (≈ 0.274 to 2.74 µM) | 0.01 to 0.1 µg/mL (≈ 0.0274 to 0.274 µM) | 0.01 to 0.1 µg/mL | 0.1 to 1 µg/mL | 0.01 to 0.1 µg/mL (≈ 0.0274 to 0.274 µM)
7 | Nc1ncccc1-c1cc(Cc2ccc(OCc3cscn3)nc2)no1 [compound 41, 3-(3-((6-(thiazol-4-ylmethoxy)pyridin-3-yl)methyl)isoxazol-5-yl)pyridin-2-amine] | 0.01 to 0.1 µg/mL (≈ 0.0274 to 0.274 µM) | 0.01 to 0.1 µg/mL (≈ 0.0274 to 0.274 µM) | 0.01 to 0.1 µg/mL | 0.1 to 1 µg/mL | 0.01 to 0.1 µg/mL (≈ 0.0274 to 0.274 µM)
8 | Nc1ncccc1-c1cc(Cc2ccc(OCc3nccs3)nc2)no1 [compound 42, 3-(3-((6-(thiazol-2-ylmethoxy)pyridin-3-yl)methyl)isoxazol-5-yl)pyridin-2-amine] | 0.01 to 0.1 µg/mL (≈ 0.0274 to 0.274 µM) | 0.01 to 0.1 µg/mL (≈ 0.0274 to 0.274 µM) | 0.01 to 0.1 µg/mL | 0.1 to 1 µg/mL | 0.01 to 0.1 µg/mL (≈ 0.0274 to 0.274 µM)
9 | Nc1ncccc1-c1cc(Cc2ccc(OCC3CC3)nc2)no1 [compound 43, 3-(3-((6-(cyclopropylmethoxy)pyridin-3-yl)methyl)isoxazol-5-yl)pyridin-2-amine] | 0.1 to 1 µg/mL (≈ 0.31 to 3.1 µM) | 0.01 to 0.1 µg/mL (≈ 0.031 to 0.31 µM) | 0.01 to 0.1 µg/mL | 0.1 to 1 µg/mL | 0.01 to 0.1 µg/mL (≈ 0.031 to 0.31 µM)
10 | Nc1ncccc1-c1cc(Cc2ccc(OCc3ncccn3)nc2)no1 [compound 46, 3-(3-((6-(pyrimidin-2-ylmethoxy)pyridin-3-yl)methyl)isoxazol-5-yl)pyridin-2-amine] | 0.1 to 1 µg/mL (≈ 0.277 to 2.77 µM) | 0.1 to 1 µg/mL (≈ 0.277 to 2.77 µM) | 0.1 to 1 µg/mL | > 1 µg/mL | 0.1 to 1 µg/mL (≈ 0.277 to 2.77 µM)
11 | Nc1ncccc1-c1cc(Cc2ccc(OCc3cnccn3)nc2)no1 [compound 47, 3-(3-((6-(pyrazin-2-ylmethoxy)pyridin-3-yl)methyl)isoxazol-5-yl)pyridin-2-amine] | 0.01 to 0.1 µg/mL (≈ 0.0277 to 0.277 µM) | 0.1 to 1 µg/mL (≈ 0.277 to 2.77 µM) | 0.1 to 1 µg/mL | 0.1 to 1 µg/mL | 0.1 to 1 µg/mL (≈ 0.277 to 2.77 µM)
12 | Nc1ncccc1-c1cc(Cc2ccc(OCc3ccoc3)nc2)no1 [compound 48, 3-(3-((6-(furan-3-ylmethoxy)pyridin-3-yl)methyl)isoxazol-5-yl)pyridin-2-amine] | 0.01 to 0.1 µg/mL (≈ 0.0287 to 0.287 µM) | 0.01 to 0.1 µg/mL (≈ 0.0287 to 0.287 µM) | 0.01 to 0.1 µg/mL | 0.1 to 1 µg/mL | 0.01 to 0.1 µg/mL (≈ 0.0287 to 0.287 µM)
13 | Cc1nc(COc2ccc(Cc3cc(-c4cccnc4N)on3)cn2)cs1 [compound 50, 3-(3-((6-((2-methylthiazol-4-yl)methoxy)pyridin-3-yl)methyl)isoxazol-5-yl)pyridin-2-amine] | 0.1 to 1 µg/mL (≈ 0.264 to 2.64 µM) | 0.1 to 1 µg/mL (≈ 0.264 to 2.64 µM) | 0.1 to 1 µg/mL | > 1 µg/mL | 0.1 to 1 µg/mL (≈ 0.264 to 2.64 µM)
14 | Nc1ncccc1-c1cc(Cc2ccc(OCc3ccc(F)cn3)nc2)no1 [compound 51, 3-(3-((6-((5-fluoropyridin-2-yl)methoxy)pyridin-3-yl)methyl)isoxazol-5-yl)pyridin-2-amine] | 0.1 to 1 µg/mL (≈ 0.265 to 2.65 µM) | 0.1 to 1 µg/mL (≈ 0.265 to 2.65 µM) | 0.01 to 0.1 µg/mL | 0.1 to 1 µg/mL | 0.1 to 1 µg/mL (≈ 0.265 to 2.65 µM)
15 | Nc1ncccc1-c1cc(Cc2ccc(OCc3ncco3)nc2)no1 [compound 53, 3-(3-((6-(oxazol-2-ylmethoxy)pyridin-3-yl)methyl)isoxazol-5-yl)pyridin-2-amine] | 0.1 to 1 µg/mL (≈ 0.286 to 2.86 µM) | 0.1 to 1 µg/mL (≈ 0.286 to 2.86 µM) | 0.1 to 1 µg/mL | 0.1 to 1 µg/mL | 0.1 to 1 µg/mL (≈ 0.286 to 2.86 µM)
16 | Nc1ncccc1-c1cc(Cc2ccc(OCc3ccncc3F)nc2)no1 [compound 54, 3-(3-((6-((3-fluoropyridin-4-yl)methoxy)pyridin-3-yl)methyl)isoxazol-5-yl)pyridin-2-amine] | 0.01 to 0.1 µg/mL (≈ 0.0265 to 0.265 µM) | 0.01 to 0.1 µg/mL (≈ 0.0265 to 0.265 µM) | 0.01 to 0.1 µg/mL | > 1 µg/mL | ≤ 0.01 µg/mL
17 | CC(Oc1ccc(Cc2cc(-c3cccnc3N)on2)cn1)c1ccccn1 (stereo not shown) [compound 55, 3-(3-((6-(1-(pyridin-2-yl)ethoxy)pyridin-3-yl)methyl)isoxazol-5-yl)pyridin-2-amine] | 0.1 to 1 µg/mL (≈ 0.268 to 2.68 µM) | 0.1 to 1 µg/mL (≈ 0.268 to 2.68 µM) | 0.1 to 1 µg/mL | > 1 µg/mL | 0.1 to 1 µg/mL (≈ 0.268 to 2.68 µM)
18 | Nc1ncccc1-c1cc(Cc2ccc(OCC3CCC3)nc2)no1 [compound 57, 3-(3-((6-(cyclobutylmethoxy)pyridin-3-yl)methyl)isoxazol-5-yl)pyridin-2-amine] | 0.01 to 0.1 µg/mL (≈ 0.0297 to 0.297 µM) | 0.01 to 0.1 µg/mL (≈ 0.0297 to 0.297 µM) | 0.01 to 0.1 µg/mL | 0.1 to 1 µg/mL | ≤ 0.01 µg/mL
19 | Nc1ncccc1-c1cc(Cc2ccc(Nc3ccccc3)nc2)no1 [compound 58, 5-((5-(2-aminopyridin-3-yl)isoxazol-3-yl)methyl)-N-phenylpyridin-2-amine] | 0.01 to 0.1 µg/mL (≈ 0.0291 to 0.291 µM) | 0.1 to 1 µg/mL (≈ 0.291 to 2.91 µM) | 0.1 to 1 µg/mL | 0.1 to 1 µg/mL | 0.01 to 0.1 µg/mL (≈ 0.0291 to 0.291 µM)
20 | Nc1ncccc1-c1cc(Cc2ccc(Nc3ccccc3F)nc2)no1 [compound 60, 5-((5-(2-aminopyridin-3-yl)isoxazol-3-yl)methyl)-N-(2-fluorophenyl)pyridin-2-amine] | 0.01 to 0.1 µg/mL (≈ 0.0277 to 0.277 µM) | 0.01 to 0.1 µg/mL (≈ 0.0277 to 0.277 µM) | 0.1 to 1 µg/mL | > 1 µg/mL | 0.01 to 0.1 µg/mL (≈ 0.0277 to 0.277 µM)
21 | Nc1ncccc1-c1cc(Cc2ccc(SCc3ccccc3)nc2)no1 [compound 61, 3-(3-((6-(benzylthio)pyridin-3-yl)methyl)isoxazol-5-yl)pyridin-2-amine] | 0.01 to 0.1 µg/mL (≈ 0.0267 to 0.267 µM) | 0.1 to 1 µg/mL (≈ 0.267 to 2.67 µM) | 0.01 to 0.1 µg/mL | > 1 µg/mL | 0.01 to 0.1 µg/mL (≈ 0.0267 to 0.267 µM)
22 | c1ccc(OCc2ccc(Cn3cc(-c4cccnc4)cn3)cc2)nc1 [compound 62, 2-((4-((4-(pyridin-3-yl)-1H-pyrazol-1-yl)methyl)benzyl)oxy)pyridine] | 0.1 to 1 µg/mL (≈ 0.292 to 2.92 µM) | > 1 µg/mL | 0.01 to 0.1 µg/mL | > 1 µg/mL | > 1 µg/mL
23 | c1ccc(COc2ccc(Cn3cc(-c4cccnc4)cn3)cn2)cc1 [compound 65, 2-(benzyloxy)-5-((4-(pyridin-3-yl)-1H-pyrazol-1-yl)methyl)pyridine] | 0.1 to 1 µg/mL (≈ 0.292 to 2.92 µM) | 0.1 to 1 µg/mL (≈ 0.292 to 2.92 µM) | 0.01 to 0.1 µg/mL | > 1 µg/mL | 0.1 to 1 µg/mL (≈ 0.292 to 2.92 µM)
24 | Nc1ncccc1-c1cc(Cc2ccc(Cc3cccnc3F)cc2)no1 [compound 69, 3-(3-(4-((2-fluoropyridin-3-yl)methyl)benzyl)isoxazol-5-yl)pyridin-2-amine] | 0.01 to 0.1 µg/mL (≈ 0.0277 to 0.277 µM) | 0.01 to 0.1 µg/mL (≈ 0.0277 to 0.277 µM) | 0.01 to 0.1 µg/mL | 0.1 to 1 µg/mL | 0.01 to 0.1 µg/mL (≈ 0.0277 to 0.277 µM)
25 | Nc1ncccc1-c1cc(Cc2ccc(CNc3ccnc(F)c3)cc2)no1 [compound 70, 3-(3-(4-(((2-fluoropyridin-4-yl)amino)methyl)benzyl)isoxazol-5-yl)pyridin-2-amine] | 0.1 to 1 µg/mL (≈ 0.266 to 2.66 µM) | 0.1 to 1 µg/mL (≈ 0.266 to 2.66 µM) | 0.01 to 0.1 µg/mL | > 1 µg/mL | 0.1 to 1 µg/mL (≈ 0.266 to 2.66 µM)
26 | Nc1ncccc1-c1cc(Cc2ccc(Nc3cccc(F)c3F)nc2)no1 [compound 72, 5-((5-(2-aminopyridin-3-yl)isoxazol-3-yl)methyl)-N-(2,3-difluorophenyl)pyridin-2-amine] | 0.01 to 0.1 µg/mL (≈ 0.0264 to 0.264 µM) | 0.01 to 0.1 µg/mL (≈ 0.0264 to 0.264 µM) | 0.1 to 1 µg/mL | 0.1 to 1 µg/mL | 0.1 to 1 µg/mL (≈ 0.264 to 2.64 µM)
